What was measured:
[1] = test system: urease positive Bifidobacteria (mix of Bifidobacterium longum subspecies infantis strains and Bifidobacterium bifidum ATCC29521); test: Fermenter growth of urease positive Bifidobacteria mix with or without urea and CO2 (Example 3, first experiment); format: cell-based; conditions: urea N source (100 mM), lactose 20 g/l
Excerpt: (§1) The following strains were used: Bifidobacterium breve DSM20213, which is the type strain of B. breve and urease negative. A mix of Bifidobacterium longum subspecies infantis strains was used that were predicted to be urease positive, to increase the chance of having a urease activity. […] Strains used were a mix of Bifidobacterium longum spp infantis DSM20088 (type strain), B. infantis M-63 (Morinaga), B. longum subspecies infantis ATCC 17930, B. longum subspecies infantis DN_163_0041 isolated from the faeces of a bottle-fed infants, B. infantis DN_163_0046 and B. longum ssp. infantis R-0033 (Lallemand) and Bifidobacterium bifidum ATCC29521 (type strain).
g/l yeast extract, 0.75 g/l tryptone, 3 g/l KH2PO4, 4.8 g/l K2HPO4, 0.2 g/l MgSO4, 0.5 g Cysteine.HCl, 15 g Sodium Propionate, supplemented with 10 ml vitamin mix and 10 ml metal mix from 100× concentrates (Teusink et al. 2005, AEM, Vol 71 (issue 11) p. 7253-7262) and 100 μM NiCl. The pH of this medium is 6.8 (+/−0.05). As carbon source 20 g/l lactose was used and when appropriate urea was added to a final concentration of 100 mM. The medium was sterilized using filtration step with a 0.22 μm filter. […] Precultures of bifidobacterium strains were grown statically in absence of urea at 37° C. in an anaerobic atmosphere (90% N2, 5% Hz, 5% CO2).
Inoculation occurred from a single colonies grown on TOS-mupirocin agar plates as known in the art. The main cultures (in the fermenters) were performed with 1×BASE supplemented with 0, 15, 50 or 100 mM urea (if applicable). During fermentation the headspace was flushed with N2 gas or with an anaerobic gas mixture ((90% N2, 5% H2, 5% CO2). CO2 is known to be needed for the growth of most Bifidobacteria in the absence of substrates that can liberate CO2.
The main fermenters were inoculated with the preculture of B. breve at an OD600 of 0.05. For the B. longum subspecies infantis and bifidum mix the individual precultures were first mixed in an equal amount based on OD600 and subsequently also inoculated with a start OD600 of 0.05. The medium was stirred at 360 rpm by magnet stirring bar. The pH was controlled at 6.2 by addition of 5M NaOH. All growth (precultures, main fermenters, agar plates) experiments were performed at 37° C. Growth was monitored in time by off-line OD600 measurement. Samples were diluted before measurement where appropriate.

[2] = test system: Bifidobacterium longum subspecies infantis ATCC 17930 (urease positive); test: Growth of strain ATCC 17930 with or without urea, CO2 and 2'FL as carbon source (Example 4); format: cell-based; conditions: 10 mM urea
Protocol: In this experiment the urease positive strain Bifidobacterium longum subspecies infantis ATCC 17930, was used. The same growth media and experimental set up as in the second experiment described in example 3 was used, except that instead of scGOS/IcFOS, 2′-fucosyllactose (Jennewein Biotechnologie GmbH) was used as a carbon and energy source. As a nitrogen source tryptone was added (3.0 g/l), or no urea or 10 mM urea (final concentration), corresponding to 0, or 0.6 g/l urea.

[3] = test system: B. longum spp infantis M-63, B. longum subspecies infantis ATCC 17930, B. longum ssp. infantis R-0033 (single strains); test: Growth of single urease positive strains with urea and a carbon source without CO2 and other nitrogen source; format: cell-based, Bifidobacterium longum subspecies infantis; conditions: presence of urea and a carbon source, absence of CO2 and other nitrogen source; data not shown
Excerpt: as §1

NC(N)=O [urea]
Growth expressed as OD600 ([1]; CO2 gas, 60 min): 0.099 OD600 | Growth expressed as OD600 ([1]; CO2 gas, 180 min): 0.168 OD600 | Growth expressed as OD600 ([1]; CO2 gas, 360 min): 0.680 OD600 | Growth expressed as OD600 ([1]; CO2 gas, 660 min): 3.940 OD600 | Growth expressed as OD600 ([1]; CO2 gas, 23 h): 3.850 OD600 | Growth expressed as OD600 ([1]; N2 gas, 60 min): 0.095 OD600 | Growth expressed as OD600 ([1]; N2 gas, 180 min): 0.161 OD600 | Growth expressed as OD600 ([1]; N2 gas, 360 min): 0.560 OD600 | Growth expressed as OD600 ([1]; N2 gas, 660 min): 3.930 OD600 | Growth expressed as OD600 ([1]; N2 gas, 23 h): 3.700 OD600 | Growth expressed as OD600 ([2]; CO2 gas, with 2'FL C source (+), 30 min): 0.072 OD600 | Growth expressed as OD600 ([2]; CO2 gas, with 2'FL C source (+), 240 min): 0.298 OD600 | Growth expressed as OD600 ([2]; CO2 gas, with 2'FL C source (+), 360 min): 0.880 OD600 | Growth expressed as OD600 ([2]; CO2 gas, with 2'FL C source (+), 540 min): 2.070 OD600 | Growth expressed as OD600 ([2]; CO2 gas, with 2'FL C source (+), 24 h): 3.060 OD600 | Growth expressed as OD600 ([2]; CO2 gas, without 2'FL C source (−), 30 min): 0.071 OD600 | Growth expressed as OD600 ([2]; CO2 gas, without 2'FL C source (−), 240 min): 0.203 OD600 | Growth expressed as OD600 ([2]; CO2 gas, without 2'FL C source (−), 360 min): 0.191 OD600 | Growth expressed as OD600 ([2]; CO2 gas, without 2'FL C source (−), 540 min): 0.191 OD600 | Growth expressed as OD600 ([2]; CO2 gas, without 2'FL C source (−), 24 h): 0.187 OD600 | Growth expressed as OD600 ([2]; N2 gas, with 2'FL C source (+), 30 min): 0.079 OD600 | Growth expressed as OD600 ([2]; N2 gas, with 2'FL C source (+), 240 min): 0.154 OD600 | Growth expressed as OD600 ([2]; N2 gas, with 2'FL C source (+), 360 min): 0.350 OD600 | Growth expressed as OD600 ([2]; N2 gas, with 2'FL C source (+), 540 min): 0.600 OD600 | Growth expressed as OD600 ([2]; N2 gas, with 2'FL C source (+), 24 h): 1.320 OD600 | Growth expressed as OD600 ([2]; N2 gas, without 2'FL C source (−), 30 min): 0.068 OD600 | Growth expressed as OD600 ([2]; N2 gas, without 2'FL C source (−), 240 min): 0.175 OD600 | Growth expressed as OD600 ([2]; N2 gas, without 2'FL C source (−), 360 min): 0.179 OD600 | Growth expressed as OD600 ([2]; N2 gas, without 2'FL C source (−), 540 min): 0.163 OD600 | Growth expressed as OD600 ([2]; N2 gas, without 2'FL C source (−), 24 h): 0.157 OD600 | Growth of single strains [3]: able to grow very well

From US20210392936A1, “Nutritional composition comprising urea and non-digestible oligosaccharides” (N.V. Nutricia, priority 2018, published 2021)
